This is an account of results in the OligoGym collection.

This data set deals with IRF4. The following applies: ASO.

“And” between values parts separate entries of the source, which are not always exact repeats. Equal values may be shown once. After the bases stand the sugars from the 5' end (letter, count) and the backbone: PS all phosphorothioate, else s phosphorothioate and o phosphodiester by linkage. Methylation of C is not given here. e = 2'-O-(2-methoxyethyl) (MOE); k = constrained ethyl (cEt); d = 2'-deoxy (DNA)

“CAGTGATGTCAGGTTT (sugars kkdddddddddkdkdk, PS)”: the target mRNA inhibition was 5% (MM.1R, 0.074 µM); 23% (MM.1R, 0.222 µM); 40% (MM.1R, 0.666 µM); 47% (MM.1R, 1 µM); 67% (MM.1R, 2 µM).

Turning to “CAGTGATGTCAGGTTT (sugars kkdddddddddkekek, PS)”, the target mRNA inhibition by setting is: (MM.1R, 0.074 µM) 8%; (MM.1R, 0.222 µM) 28%; (MM.1R, 0.666 µM) 53%; (MM.1R, 1 µM) 64%; (MM.1R, 2 µM) 77%.

Take “CAGTGATGTCAGGTTT (sugars kkkddddddddkekek, PS)”: the target mRNA inhibition runs as follows: (MM.1R, 0.074 µM) 19%; (MM.1R, 0.222 µM) 40%; (MM.1R, 0.666 µM) 56%; (MM.1R, 1 µM) 56%; (MM.1R, 2 µM) 74%.

As for CAGTGGAGCTCCACAG (sugars k3 d10 k3, PS), under “SK-MEL-28, 4 µM”, the target mRNA inhibition was 41%.

On to “CAGTTGTAAATGAGTC (sugars k2 d9 e3 k2, PS)”, for which the target mRNA inhibition reads like this: (H929, 0.00067 µM) 26%; (H929, 0.002 µM) 46%; (H929, 0.00667 µM) 64%; (H929, 0.02 µM) 72%; (H929, 0.04 µM) 50%; (KMS11, 0.2 µM) 83% and 91%. Further, the target mRNA inhibition (MM.1R, 0.074 µM) stood at 10%; the target mRNA inhibition (MM.1R, 0.222 µM) amounted to 28%; the target mRNA inhibition (MM.1R, 0.666 µM) stood at 52%; the target mRNA inhibition (MM.1R, 1 µM) amounted to 62%; the target mRNA inhibition (MM.1R, 2 µM) was found to be 77%.

For “CAGTTGTAAATGAGTC (sugars kdddddddddkekeke, PS)”, the target mRNA inhibition reads like this: (H929, 0.00067 µM) 9%; (H929, 0.002 µM) 26%; (H929, 0.00667 µM) 39%; (H929, 0.02 µM) 48%; (H929, 0.04 µM) 27%; (KMS11, 0.2 µM) 62% and 74%. The target mRNA inhibition is, setting by setting: (MM.1R, 0.074 µM) 20%; (MM.1R, 0.222 µM) 36%; (MM.1R, 0.666 µM) 59%; (MM.1R, 1 µM) 62%; (MM.1R, 2 µM) 79%.

Consider “CAGTTGTAAATGAGTC (sugars kkddddddddddkeke, PS)”, for which the target mRNA inhibition runs as follows: (MM.1R, 0.074 µM) 19%; (MM.1R, 0.222 µM) 35%; (MM.1R, 0.666 µM) 49%; (MM.1R, 1 µM) 59%; (MM.1R, 2 µM) 73%.

For “CAGTTGTAAATGAGTC (sugars kkkdddddddddkeke, PS)”, the target mRNA inhibition (MM.1R, 0.074 µM) was determined as 21%; the target mRNA inhibition (MM.1R, 0.222 µM) is 28%; the target mRNA inhibition (MM.1R, 0.666 µM) amounted to 57%; the target mRNA inhibition (MM.1R, 1 µM) worked out at 58%; the target mRNA inhibition (MM.1R, 2 µM) was found to be 80%.

As to “CAGTTGTAAATGAGTC (sugars kkkddddddddkekek, PS)”, the target mRNA inhibition (MM.1R, 0.074 µM) was 26%; the target mRNA inhibition (MM.1R, 0.222 µM) is 52%; the target mRNA inhibition (MM.1R, 0.666 µM) is 75%; the target mRNA inhibition (MM.1R, 1 µM) was 76%; the target mRNA inhibition (MM.1R, 2 µM) was 88%.

As for CATAACACGGTGTTGA (sugars k3 d10 k3, PS), where the note is “SK-MEL-28, 4 µM”, the target mRNA inhibition stood at 36%.

In the case of CATACAGTGTGATTAA (sugars k3 d10 k3, PS), the target mRNA inhibition (SK-MEL-28, 4 µM) amounted to 53%.

As to CATACCTACAAGCAGT (sugars k3 d10 k3, PS), where the note is “SK-MEL-28, 4 µM”, the target mRNA inhibition was determined as 43%.

Regarding CATAGGTCCTTCAGAT (sugars k3 d10 k3, PS), the target mRNA inhibition (MM.1R, 1 µM) was -5%.

Regarding CATCCGAAAAGACTGG (sugars k3 d10 k3, PS), the target mRNA inhibition (MM.1R, 1 µM) came to 14%.

In the case of CATCGAGATCAGTCTC (sugars k3 d10 k3, PS), the target mRNA inhibition (SK-MEL-28, 4 µM) was 65%.

With CATGAGCTCGGTCAAC (sugars k3 d10 k3, PS), for the setting “MM.1R, 1 µM”, the target mRNA inhibition was -1%.

On to CATGGAGGATCATAAA (sugars k3 d10 k3, PS), for which the target mRNA inhibition (SK-MEL-28, 4 µM) is 22%.

Regarding CATGGGACATTGGTAC (sugars k3 d10 k3, PS), the target mRNA inhibition (MM.1R, 1 µM) worked out at 18%.

As for CATGGGAGATCCGGCA (sugars k3 d10 k3, PS), the target mRNA inhibition (SK-MEL-28, 4 µM) stood at 41%.
